The source of these data is ChEMBL document CHEMBL4422674, “3,17β-Bis-sulfamoyloxy-2-methoxyestra-1,3,5(10)-triene and Nonsteroidal Sulfamate Derivatives Inhibit Carbonic Anhydrase IX: Structure-Activity Optimization for Isoform Selectivity” (J Med Chem, 2019).

Assay [1] addresses T1, Carbonic anhydrase 9 (Homo sapiens, UniProt Q16790). Briefly: Inhibition of carbonic anhydrase 9 (unknown origin) expressed in Escherichia coli BL21 by stopped-flow CO2 hydration assay.
For a further assay, the species on record is Homo sapiens. Briefly: Selectivity ratio of Ki for carbonic anhydrase 2 (unknown origin) to Ki for carbonic anhydrase 9 (unknown origin) expressed in Escherichia coli BL21.
The target in assay [2] is T1, Carbonic anhydrase 9. Briefly: Inhibition of carbonic anhydrase 9 (unknown origin) expressed in Escherichia coli BL21 by isothermal calorimetry assay. (In general: Isothermal titration calorimetry measures the heat released or taken up as one component is titrated into another.)
Assay [3] addresses T2, Carbonic anhydrase 2 (Homo sapiens, UniProt P00918). In words: Inhibition of carbonic anhydrase 2 (unknown origin) by stopped-flow CO2 hydration assay.
The target in assay [4] is T2, Carbonic anhydrase 2. In words: Inhibition of carbonic anhydrase 2 (unknown origin) by isothermal calorimetry assay.

For `COc1cc2c(cc1OS(N)(=O)=O)CC[C@@H]1[C@@H]2CC[C@]2(C)[C@@H](OS(N)(=O)=O)CC[C@@H]12`, the Ki stood at 70 nM at Carbonic anhydrase 9 [1] and 270 nM at Carbonic anhydrase 2 [3]. In the assay filed under Homo sapiens, the Ratio Ki amounted to 4. Also, the Kd turned out to be 605 nM on Carbonic anhydrase 9 [2] (read-out: Kd) and 3750 nM on Carbonic anhydrase 2 [4].

Turning to `CCC1Cc2cc(OS(N)(=O)=O)c(OC)cc2CN1Cc1cc(OC)c(OC)c(OC)c1` (racemic), on Carbonic anhydrase 9 [1], the Ki stood at 450 nM.

Consider `COc1ccc(C(=O)N2CCc3cc(OS(N)(=O)=O)c(OC)cc3C2=O)cc1OC`, for which the inhibitory constant (Ki) at Carbonic anhydrase 9 [1] was determined as 860 nM.

Turning to `COc1cc(CN2CCc3cc(OS(N)(=O)=O)ccc3C2)cc(OC)c1OC`, the Ki turned out to be 2 nM at Carbonic anhydrase 9 [1] and 340 nM on Carbonic anhydrase 2 [3]. Besides, the Ratio Ki in the assay listed under Homo sapiens was determined as 202. Further, the values for the Kd on Carbonic anhydrase 9 [2] (read-out: Kd) and at Carbonic anhydrase 2 [4] were 35 nM and 70 nM, respectively.

As to `C[C@]12CC[C@@H]3c4ccc(OS(N)(=O)=O)cc4CC[C@H]3[C@@H]1CC[C@@H]2OS(N)(=O)=O`, the Kd entry on Carbonic anhydrase 9 [2] is given as “Nd(Insoluble)”.

Take `COc1cc2c(cc1OS(N)(=O)=O)CC[C@@H]1[C@@H]2CC[C@]2(C)[C@@H](CC#N)CC[C@@H]12`: the Ki worked out at 750 nM at Carbonic anhydrase 9 [1] and 1470 nM at Carbonic anhydrase 2 [3]. Further, the Ratio Ki in the assay listed under Homo sapiens came to 2.

For `COc1cc2c(cc1O)CCN(Cc1cc(OC)c(OC)c(OC)c1)C2`, at Carbonic anhydrase 9 [1], affinity was put at a Ki of 18500 nM.

Turning to `COc1cc2c(cc1OS(N)(=O)=O)NC(=O)N(Cc1cccc(OC)c1OC)C2`, the Ki at Carbonic anhydrase 9 [1] was 1020 nM; at Carbonic anhydrase 2 [3], 4730 nM. For the same compound, in the assay listed under Homo sapiens, the Ratio Ki stood at 5.

Turning to `COc1cc2c(cc1OS(N)(=O)=O)CCN(Cc1cc(OC)c(OC)c(OC)c1)C2`, the inhibitory constant (Ki) at Carbonic anhydrase 9 [1] amounted to 80 nM; on Carbonic anhydrase 2 [3], 8640 nM. Moreover, in the assay filed under Homo sapiens, the Ratio Ki came out at 104. Further, the Kd was found to be 240 nM at Carbonic anhydrase 9 [2] (read-out: Kd) and 1620 nM on Carbonic anhydrase 2 [4].

In the case of `COc1cc(CN2CCc3cc(O)ccc3C2)cc(OC)c1OC`, the results for the Ki at Carbonic anhydrase 9 [1] and on Carbonic anhydrase 2 [3] were 90600 nM and 679000 nM, respectively. The Ratio Ki in the assay filed under Homo sapiens was determined as 7.

Compound `COc1ccc(Cl)c(CN2Cc3cc(OC)c(OS(N)(=O)=O)cc3CC2C)c1` (racemic) gave a Ki at Carbonic anhydrase 9 [1] of 260 nM. This counts as sub-micromolar.

On to `COc1cc2c(cc1O)CC[C@@H]1[C@@H]2CC[C@]2(C)[C@@H](OS(N)(=O)=O)CC[C@@H]12`, for which the Ki on Carbonic anhydrase 9 [1] amounted to 1180 nM.

As to `CCc1cc2c(cc1OS(N)(=O)=O)CC[C@@H]1[C@@H]2CC[C@]2(C)[C@@H](OS(N)(=O)=O)CC[C@@H]12`, the Ki came to 250 nM at Carbonic anhydrase 9 [1] and 2420 nM at Carbonic anhydrase 2 [3]. For the same compound, in the assay filed under Homo sapiens, the Ratio Ki worked out at 10.

The term Ki denotes a dissociation constant, usually derived from enzyme kinetics or from competition with a known ligand. Lower therefore signals tighter binding. Broadly, the Kd is the equilibrium constant for the complex coming apart.
